In publication PMC6765138 (Nucleic Acids Research, 2019):

Key:
[1] = molecular target: T1, MtPrpR81–486 (Mycobacterium tuberculosis, UniProt O06581)
T1 construct: gene prpR

[2] = molecular target: the molecule itself; assay: SEC

## CC(C)(COP(=O)(O)OP(=O)(O)OC[C@H]1O[C@@H](n2cnc3c(N)ncnc32)[C@H](O)[C@@H]1OP(=O)(O)O)[C@@H](O)C(=O)NCCC(=O)NCCS [Coenzyme A]
[1]
  X-ray crystal structure of co-purified ligand; LC-HRMS of extracted ligand: the predominant CoA was built into all protein chains

B1: MtPrpR_(81–486) (Mycobacterium tuberculosis PrpR, Rv1129c, residues 81-486, N-terminal His6-tag) (domain or fragment)
chain: DARLVADLSDVFTDIGVEHAVSGAQIEEFVARMPEVGHSLVAVHRRLRAATEELEGYRSRATAETELPPARPMPFEEVRDFFYDRNNYIHDLDMAAERMFTESGMRTGGLDIQLAELMRDRFGISVVIDDNLPDTAKRRYHPDTKVLRVAHWLMPGQRAFQIATQLALVGQSDLISSIVATDDQLSTEARGVARIGLANYFAGAFLLPYREFHRAAEQLRYDIDLLGRRFGVGFETVCHRLSTLQRPRQRGIPFIFVRTDKAGNISKRQSATAFHFSRVGGSCPLWVVHDAFAQPERIVRQVAQMPDGRSYFWVAKTTAADGLGYLGPHKNFAVGLGCDLAHAHKLVYSTGVVLDDPSTEVPIGAGCKICNRTSCAQRAFPYLGGRVAVDENAGSSLPYSSTEQSV
notes: also called native PrpR_(81–486); wild-type MtPrpR_(81–486); not shown: His6, N-terminal, kept
[2]
  stoichiometry N: 4
